Assay results reported in patent publication US20160257697A1, “THIOPHENE-SUBSTITUTED TETRACYCLIC COMPOUNDS AND METHODS OFUSE THEREOF FOR THE TREATMENT OF VIRAL DISEASES” (priority 2013, published 2016).
Where two headings read alike, the source gives them in different places.

Columns and labels:
Test in all cases: microbe, parasite or virus in culture
Type in all cases: cell-based, Hepatitis C virus (HCV)
[1] = system: HCV replicon 2B; conditions: Replicon Assay A
Procedure, shortened: (§1)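 HCV replicon RNA levels were quantified by TaqMan RT-PCR after 3-day compound exposure (0.5% DMSO, 5% FBS). Cyclophilin RNA, co-amplified in the same reaction, served as endogenous control; Ct values were converted to RNA amounts using linear regression standard curves.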

[2] = system: HCV replicon 1AY93H; conditions: Replicon Assay A
Procedure, shortened: as §1

[3] = system: HCV replicon 1A; conditions: Replicon Assay A
Procedure, shortened: as §1

[4] = system: HCV replicon 1AQ30D; conditions: Replicon Assay B
Description: (§2) In an alternate assay (“Replicon Assay B”), 1000 cells were seeded per well in a 384-well collagen coated black plate from Greiner bio-one (Cat #781946) in 5% FBS. Inhibitors of this invention were added at 24 h post-seeding, and the plates were incubated for 3 days. Cells were subsequently lysed with Qiagen lysis buffer (Cat #1062731) to extract the RNA. HCV replicon RNA level was measured by real-time PCR using the RNA-to-CT kit from Applied Biosystem (Cat #4392656) and genotype-specific primers and probes. The amplicon was located within NS5B. […] (SEQ. ID NO. 2); the probe sequence was FAM-labeled […] (SEQ. ID NO. 3).
(§3) The real-time RT-PCR reactions were run on ABI PRISM 7900HT or Viia7 Sequence Detection System using the following program: 48° C. for 30 minutes, 95° C. for 10 minutes, 40 cycles of 95° C. for 15 sec, 60° C. for 1 minutes.
(§4) Data for replicons 1A, 1AY93H and 2B were obtained using Replicon Assay A and data for replicons 1AQ30D and 1B were obtained using Replicon Assay B.

[5] = system: HCV replicon 1B; conditions: Replicon Assay B
Description: as §2, §3, §4

[6] = read-out: 1A Y93H IC50, replicon 1AY93H
[7] = read-out: 1A Q30D IC50, replicon 1AQ30D
[8] = read-out: 2B IC50, HCV replicon 2B
[9] = read-out: 1A Y93H IC50, HCV replicon 1A Y93H
[10] = Hepatitis C virus, read-out: 1A Q30D IC50, HCV replicon 1A Q30D
[11] = Hepatitis C virus, read-out: 2B IC50 (nM), replicon 2B
[12] = Hepatitis C virus, read-out: 1A Y93H IC50 (nM), replicon 1AY93H
[13] = Hepatitis C virus, read-out: 1A Q30D IC50 (nM), replicon 1AQ30D

**Q.** Which IC50 ([1]; read-out: 2B IC50, replicon 2B) does the source give for `CCCc1ccc(C2Oc3cc(-c4cnc([C@@H]5CCCN5C(=O)[C@@H](NC(=O)OC)C(C)C)[nH]4)cc(F)c3-c3cc4cc(-c5cnc([C@@H]6CCCN6C(=O)C(NC(=O)OC)C6C[C@@H](C)O[C@@H](C)C6)[nH]5)ccc4n32)s1` (single isomer, unassigned) [Compound 370] here?
**A.** 0.0066 nM

**Q.** And the IC50 [2, 6]?
**A.** 0.0022 nM

**Q.** What about the IC50 ([3]; replicon 1A) of the same compound?
**A.** 1.4 pM

**Q.** And the IC50 [4, 7]?
**A.** 0.0454 nM

**Q.** What about the IC50 ([5]; replicon 1B) of the same compound?
**A.** 2 pM

**Q.** For `COC(=O)N[C@H](C(=O)N1CCC[C@H]1c1ncc(-c2cc(F)c3c(c2)OC(c2ccc(C4CC4)s2)n2c-3cc3cc(-c4cnc([C@@H]5CCCN5C(=O)[C@@H](NC(=O)OC)C5CCOCC5)[nH]4)ccc32)[nH]1)C1CCOCC1` (single isomer, unassigned) [Compound 279], which IC50 ([1]; read-out: 2B IC50, replicon 2B) is on record?
**A.** 0.017 nM

**Q.** What about the IC50 [2, 6] of the same compound?
**A.** 0.21 nM

**Q.** What about the IC50 ([3]; Hepatitis C virus, replicon 1A) of the same compound?
**A.** 2.3 pM

**Q.** And the IC50 [4, 7]?
**A.** 0.92 nM

**Q.** What about the IC50 ([5]; Hepatitis C virus, replicon 1B) of the same compound?
**A.** 2.9 pM

**Q.** For `COC(=O)NC(C(=O)N1CCC[C@H]1c1ncc(-c2ccc3c(c2)cc2n3C(c3ccc(C4CC4)s3)Oc3cc(-c4cnc([C@@H]5CCCN5C(=O)[C@@H](NC(=O)OC)C(C)C)[nH]4)cc(F)c3-2)[nH]1)C1CC(C)(C)OC(C)(C)C1` (single isomer, unassigned) [Compound 421], which IC50 [1, 8] is on record?
**A.** 0.0184 nM

**Q.** What about the IC50 [2, 9] of the same compound?
**A.** 0.0127 nM

**Q.** What about the IC50 ([3]; HCV replicon 1A) of the same compound?
**A.** 2.3 pM

**Q.** What about the IC50 [4, 10] of the same compound?
**A.** 0.126 nM

**Q.** For `COC(=O)NC(C(=O)N1CCC[C@H]1c1ncc(-c2ccc3c(c2)cc2n3C(c3ccc(CC4CC4)s3)Oc3cc(-c4cnc([C@@H]5CCCN5C(=O)[C@@H](NC(=O)OC)C(C)C)[nH]4)cc(F)c3-2)[nH]1)C1CCOC(C)(C)C1` (single isomer, unassigned) [Compound 410], which IC50 [1, 8] is on record?
**A.** 0.0041 nM

**Q.** What about the IC50 [2, 9] of the same compound?
**A.** 0.0034 nM

**Q.** And the IC50 ([4]; read-out: 1A Q30D IC50, HCV replicon 1A Q30D)?
**A.** 0.106 nM

**Q.** And the IC50 ([5]; HCV replicon 1B)?
**A.** 3.3 pM

**Q.** For `CCCc1ccc(C2Oc3cc(-c4cnc([C@@H]5CCCN5C(=O)[C@@H](NC(=O)OC)C(C)C)[nH]4)cc(F)c3-c3cc4cc(-c5cnc([C@@H]6CCCN6C(=O)[C@@H](NC(=O)OC)C(C)C)[nH]5)ccc4n32)s1` (stereo partly drawn) [Compound 34], which IC50 [1, 11] is on record?
**A.** 0.1 nM

**Q.** And the IC50 [2, 12]?
**A.** 0.005 nM

**Q.** And the IC50 ([3]; Hepatitis C virus, replicon 1A)?
**A.** 2.8 pM

**Q.** What about the IC50 [4, 13] of the same compound?
**A.** 0.16 nM

**Q.** With `COC(=O)N[C@H](C(=O)N1CCC[C@H]1c1ncc(-c2cc(F)c3c(c2)OC(c2ccc(C4CC4)s2)n2c-3cc3cc(-c4cnc([C@@H]5CCCN5C(=O)[C@@H](NC(=O)OC)C(C)C)[nH]4)ccc32)[nH]1)C(C)C` (single isomer, unassigned) [Compound 5] as the compound, how does the IC50 [1, 11] read?
**A.** 2.08 nM

**Q.** What about the IC50 [2, 12] of the same compound?
**A.** 0.95 nM

**Q.** And the IC50 ([3]; Hepatitis C virus, replicon 1A)?
**A.** 4.6 pM

**Q.** And the IC50 [4, 13]?
**A.** 28.3 nM

**Q.** Which IC50 ([1]; read-out: 2B IC50, replicon 2B) does the source give for `COC(=O)N[C@H](C(=O)N1CCC[C@H]1c1ncc(-c2cc(F)c3c(c2)OC(c2ccc(OC)s2)n2c-3cc3cc(-c4cnc([C@@H]5CCCN5C(=O)[C@@H](NC(=O)OC)C(C)C)[nH]4)ccc32)[nH]1)C(C)C` (single isomer, unassigned) [Compound 20] here?
**A.** 0.051 nM

**Q.** And the IC50 [2, 6]?
**A.** 0.014 nM

**Q.** What about the IC50 [4, 13] of the same compound?
**A.** 0.38 nM

**Q.** And the IC50 ([5]; Hepatitis C virus, replicon 1B)?
**A.** 1.1 pM

**Q.** How did the IC50 ([1]; Hepatitis C virus, read-out: 2B IC50, HCV replicon 2B) turn out when `COC(=O)N[C@H](C(=O)N1CCC[C@H]1c1ncc(-c2cc(F)c3c(c2)OC(c2ccc(C4CC4)s2)n2c-3cc3cc(-c4cnc([C@@H]5C[C@H]6C[C@H]6N5C(=O)[C@@H](NC(=O)OC)C5CCOCC5)[nH]4)ccc32)[nH]1)C(C)C` (stereo partly drawn) [Compound 653] was run?
**A.** 0.00144 nM

**Q.** What about the IC50 ([2]; Hepatitis C virus, read-out: 1A Y93H IC50, HCV replicon 1A Y93H) of the same compound?
**A.** 0.00135 nM

**Q.** What about the IC50 [4, 10] of the same compound?
**A.** 0.00911 nM

**Q.** What about the IC50 ([5]; Hepatitis C virus, HCV replicon 1B) of the same compound?
**A.** 1.55 pM

**Q.** With `COC(=O)N[C@H](C(=O)N1[C@@H]2C[C@@H]2C[C@H]1c1ncc(-c2cc(F)c3c(c2)OC(c2ccc(C4CC4)s2)n2c-3cc3cc(-c4cnc([C@@H]5C[C@H]6C[C@H]6N5C(=O)[C@@H](NC(=O)OC)C(C)C)[nH]4)ccc32)[nH]1)C(C)C` (single isomer, unassigned) [Compound 88] as the compound, how does the IC50 ([1]; read-out: 2B IC50, replicon 2B) read?
**A.** 0.59 nM

**Q.** What about the IC50 [2, 6] of the same compound?
**A.** 0.007 nM

**Q.** And the IC50 [4, 7]?
**A.** 0.3 nM

**Q.** What about the IC50 ([5]; replicon 1B) of the same compound?
**A.** 1.4 pM

**Q.** Which results are given for `COC(=O)NC(C(=O)N1CCCC1c1ncc(-c2cc(F)c3c(c2)OC(c2ccc(C4CC4)s2)n2c-3cc3cc(-c4cnc(C5CCCN5C(=O)C(NC(=O)OC)C5CCOC(C)C5)[nH]4)ccc32)[nH]1)C(C)C` (mixture of isomers) [Compound 849]?
**A.** IC50 ([1]; HCV replicon 2B, read-out: 2B IC50): 0.005 nM; IC50 ([3]; HCV replicon 1A): 2.3 pM; IC50 ([4]; HCV replicon 1A Q30D, read-out: 1A Q30D IC50): 0.029 nM; IC50 ([5]; HCV replicon 1B): 2.9 pM
